Data taken from publication PMC7774954, “Interactomic affinity profiling by holdup assay: Acetylation and distal residues impact the PDZome-binding specificity of PTEN phosphatase” (PLoS ONE, 2020).

Assays:
DLG1-1 = DLG1-1 (Homo sapiens, UniProt Q12959); test: Holdup assay, DLG1-1; assay type: binding; settings: DLG1-1
GORASP2-1 = GORASP2-1 (Homo sapiens, UniProt Q9H8Y8); test: Holdup assay, GORASP2-1; assay type: binding
HTRA4-1 = test: Holdup assay, HTRA4-1; assay type: binding, human
FRMPD3-1 = test: Holdup assay, FRMPD3-1; assay type: binding, human
MAGI2-6 = MAGI2-6 (Homo sapiens, UniProt Q86UL8); test: Holdup assay, MAGI2-6; assay type: binding
MAGI2-6, sequence (Q86UL8 1147-1229): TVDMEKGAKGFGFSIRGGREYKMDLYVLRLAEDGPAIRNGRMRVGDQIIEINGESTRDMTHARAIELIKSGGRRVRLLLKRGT

PTPN13 PDZ 2 = target: T1, PTPN13 PDZ 2 (Homo sapiens, UniProt Q12923); test: Holdup assay, PTPN13-2; assay type: binding; settings: PDZ domain PTPN13-2
T1 construct: made in house; host or cells: E. coli
T1 sequence (Q12923 1368-1452 limits assumed): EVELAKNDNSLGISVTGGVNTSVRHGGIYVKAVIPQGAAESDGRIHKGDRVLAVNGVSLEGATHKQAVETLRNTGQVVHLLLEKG
Experimental: (§1) The holdup assay was performed on a Tecan freedom Evo200 robot with 384-well plates in singlicate for the three 11-mer PTEN variants and the 13-mer PTEN peptide as described in [31, 32]. Briefly, prior to interaction assay, 2.5 μL of streptavidin resin was saturated in each well with 20 μL of biotinylated PBM peptides (42 μM) and then washed twice with an excess of free biotin, while the reference resin was incubated only with biotin. Right before the holdup experiment, the PDZ library was spiked with an internal standard of lysozyme. Then, the biotin- or PBM-saturated resin was incubated, each in a distinct well of a 384-well plate, with complete cell lysates diluted so that the concentration of the tag-PDZ present in the crude extract is adjusted at 4 μM. After a sufficient time to reach complex equilibrium (15 min.), a fast and mild filtration step is performed and the tag-PDZ concentrations were measured by capillary electrophoresis instrument (LabChip GXII, PerkinElmer, Massachusets, USA). Standard markers were used to convert migration time into molecular weight on the LabChip software and inappropriate molecular weight markers were corrected or excluded.
(§2) For filtered data, the BI was extracted with the following equation (Eq 1) that estimates the depleted fraction after superimposition of the sample and reference electropherograms: BI=Iref−Ilig/Iref (1) where Iref and Ilig are the intensities of the tag-PDZ peaks measured, for each PDZ domain/PBM peptide interaction pair, in the biotin reference and the PBM electropherograms, respectively.
(§3) BIs were transformed into dissociation constants (KD) using the following formula: KD=([PDZtot]−BI·[PDZtot])·([PBMtot]−BI·[PDZtot])/BI·[PDZtot] (2) where [PDZtot] and [PBMtot] correspond to the total concentrations of the PDZ domain (usually around 4 μM) and the PBM peptide used during the assay. Since the PBMtot concentration in the resin during the holdup assay parameter may differ from one peptide to another and remains unknown, it is impossible to directly convert BI values into KD constants. We systematically determined the KD constants for a subset of PDZ/PBM pairs by competitive FP. […] For each PBM, the average peptide concentration was calculated after outlier rejection based on the absolute distances from the median as compared to three times the standard deviation (3σ rule), with never more than 2 values rejected.

GRIP2-7 = test: Holdup assay, GRIP2-7; assay type: binding, human
DFNB31-1 = target: T2, DFNB31-1 (Homo sapiens, UniProt Q9P202); test: Holdup assay, DFNB31-1; assay type: binding
T2 sequence (Q9P202 140-223): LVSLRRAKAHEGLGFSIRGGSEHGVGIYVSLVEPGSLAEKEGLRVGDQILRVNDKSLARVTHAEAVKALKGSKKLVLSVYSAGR

INADL-5 = test: Holdup assay, INADL-5; assay type: binding, human
CASK-1 = test: Holdup assay, CASK-1; assay type: binding, human
CARD11-1 = test: Holdup assay, CARD11-1; assay type: binding, human
MAGI1-1 = test: Holdup assay, MAGI1-1; assay type: binding, human
FRMPD2-3 = test: Holdup assay, FRMPD2-3; assay type: binding, human
SDCBP PDZ 1 = target: T3, SDCBP PDZ 1 (Homo sapiens, UniProt O00560); test: Holdup assay, SDCBP-1; assay type: binding; settings: PDZ domain SDCBP-1
T3 construct: made in house; host or cells: E. coli
T3 sequence (O00560 114-193 limits assumed): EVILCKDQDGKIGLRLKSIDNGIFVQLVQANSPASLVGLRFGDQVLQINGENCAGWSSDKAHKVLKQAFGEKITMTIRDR
Experimental: as §1, §2, §3

NHERF2 PDZ 1 = target: T4, NHERF2 PDZ 1 (Homo sapiens, UniProt Q15599); test: Holdup assay, NHERF2-1; assay type: binding; settings: PDZ domain NHERF2-1
T4 construct: made in house; host or cells: E. coli
T4 sequence (Q15599 11-90 limits assumed): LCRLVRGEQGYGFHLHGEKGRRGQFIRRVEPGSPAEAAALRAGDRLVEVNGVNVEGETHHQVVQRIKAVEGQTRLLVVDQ
Experimental: as §1, §2, §3

MAGI2-1 = test: Holdup assay, MAGI2-1; assay type: binding, human
MAGI1 PDZ 2 = target: T5, MAGI1 PDZ 2 (Homo sapiens, UniProt Q96QZ7); test: Holdup assay, MAGI1-2; assay type: binding
T5 construct: made in house; host or cells: E. coli
T5 sequence (Q96QZ7 472-554 limits assumed): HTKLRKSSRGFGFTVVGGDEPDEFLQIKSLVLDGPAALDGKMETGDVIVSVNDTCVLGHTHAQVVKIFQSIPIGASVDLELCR
Experimental: as §1, §2
BIs were transformed into dissociation constants (KD) using the following formula: KD=([PDZtot]−BI·[PDZtot])·([PBMtot]−BI·[PDZtot])/BI·[PDZtot] […] We systematically determined the KD constants for a subset of PDZ/PBM pairs by competitive FP. […] For each PBM, the average peptide concentration was calculated after outlier rejection based on the absolute distances from the median as compared to three times the standard deviation (3σ rule), with never more than 2 values rejected.

MAST2 PDZ 1 = target: T6, MAST2 PDZ 1 (Homo sapiens, UniProt Q6P0Q8); test: Holdup assay, MAST2-1; assay type: binding
T6 construct: made in house; host or cells: E. coli
T6 sequence (Q6P0Q8 1104-1192 limits assumed): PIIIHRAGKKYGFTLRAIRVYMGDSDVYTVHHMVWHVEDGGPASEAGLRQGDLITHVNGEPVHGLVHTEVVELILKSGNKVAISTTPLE
Experimental: as §1, §2, §3

MAST1 PDZ 1 = target: T7, MAST1 PDZ 1 (Homo sapiens, UniProt Q9Y2H9); test: Holdup assay, MAST1-1; assay type: binding
T7 construct: made in house; host or cells: E. coli
T7 sequence (Q9Y2H9 967-1055 limits assumed): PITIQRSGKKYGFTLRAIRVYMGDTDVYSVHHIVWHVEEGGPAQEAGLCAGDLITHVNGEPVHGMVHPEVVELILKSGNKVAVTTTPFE
Experimental: as §1, §2, §3

DLG4 PDZ 1 = target: T8, DLG4 PDZ 1 (Homo sapiens, UniProt P78352); test: Holdup assay, DLG4-1; assay type: binding; settings: DLG4-1
T8 construct: made in house; host or cells: E. coli
T8 sequence (P78352 65-151): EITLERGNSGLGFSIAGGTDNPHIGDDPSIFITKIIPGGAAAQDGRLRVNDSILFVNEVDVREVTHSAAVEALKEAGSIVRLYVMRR
Experimental: as §1, §2, §3

INADL-7 = INADL-7 (Homo sapiens, UniProt Q8NI35); test: Holdup assay, INADL-7; assay type: binding
INADL-7, sequence (Q8NI35 whole entry): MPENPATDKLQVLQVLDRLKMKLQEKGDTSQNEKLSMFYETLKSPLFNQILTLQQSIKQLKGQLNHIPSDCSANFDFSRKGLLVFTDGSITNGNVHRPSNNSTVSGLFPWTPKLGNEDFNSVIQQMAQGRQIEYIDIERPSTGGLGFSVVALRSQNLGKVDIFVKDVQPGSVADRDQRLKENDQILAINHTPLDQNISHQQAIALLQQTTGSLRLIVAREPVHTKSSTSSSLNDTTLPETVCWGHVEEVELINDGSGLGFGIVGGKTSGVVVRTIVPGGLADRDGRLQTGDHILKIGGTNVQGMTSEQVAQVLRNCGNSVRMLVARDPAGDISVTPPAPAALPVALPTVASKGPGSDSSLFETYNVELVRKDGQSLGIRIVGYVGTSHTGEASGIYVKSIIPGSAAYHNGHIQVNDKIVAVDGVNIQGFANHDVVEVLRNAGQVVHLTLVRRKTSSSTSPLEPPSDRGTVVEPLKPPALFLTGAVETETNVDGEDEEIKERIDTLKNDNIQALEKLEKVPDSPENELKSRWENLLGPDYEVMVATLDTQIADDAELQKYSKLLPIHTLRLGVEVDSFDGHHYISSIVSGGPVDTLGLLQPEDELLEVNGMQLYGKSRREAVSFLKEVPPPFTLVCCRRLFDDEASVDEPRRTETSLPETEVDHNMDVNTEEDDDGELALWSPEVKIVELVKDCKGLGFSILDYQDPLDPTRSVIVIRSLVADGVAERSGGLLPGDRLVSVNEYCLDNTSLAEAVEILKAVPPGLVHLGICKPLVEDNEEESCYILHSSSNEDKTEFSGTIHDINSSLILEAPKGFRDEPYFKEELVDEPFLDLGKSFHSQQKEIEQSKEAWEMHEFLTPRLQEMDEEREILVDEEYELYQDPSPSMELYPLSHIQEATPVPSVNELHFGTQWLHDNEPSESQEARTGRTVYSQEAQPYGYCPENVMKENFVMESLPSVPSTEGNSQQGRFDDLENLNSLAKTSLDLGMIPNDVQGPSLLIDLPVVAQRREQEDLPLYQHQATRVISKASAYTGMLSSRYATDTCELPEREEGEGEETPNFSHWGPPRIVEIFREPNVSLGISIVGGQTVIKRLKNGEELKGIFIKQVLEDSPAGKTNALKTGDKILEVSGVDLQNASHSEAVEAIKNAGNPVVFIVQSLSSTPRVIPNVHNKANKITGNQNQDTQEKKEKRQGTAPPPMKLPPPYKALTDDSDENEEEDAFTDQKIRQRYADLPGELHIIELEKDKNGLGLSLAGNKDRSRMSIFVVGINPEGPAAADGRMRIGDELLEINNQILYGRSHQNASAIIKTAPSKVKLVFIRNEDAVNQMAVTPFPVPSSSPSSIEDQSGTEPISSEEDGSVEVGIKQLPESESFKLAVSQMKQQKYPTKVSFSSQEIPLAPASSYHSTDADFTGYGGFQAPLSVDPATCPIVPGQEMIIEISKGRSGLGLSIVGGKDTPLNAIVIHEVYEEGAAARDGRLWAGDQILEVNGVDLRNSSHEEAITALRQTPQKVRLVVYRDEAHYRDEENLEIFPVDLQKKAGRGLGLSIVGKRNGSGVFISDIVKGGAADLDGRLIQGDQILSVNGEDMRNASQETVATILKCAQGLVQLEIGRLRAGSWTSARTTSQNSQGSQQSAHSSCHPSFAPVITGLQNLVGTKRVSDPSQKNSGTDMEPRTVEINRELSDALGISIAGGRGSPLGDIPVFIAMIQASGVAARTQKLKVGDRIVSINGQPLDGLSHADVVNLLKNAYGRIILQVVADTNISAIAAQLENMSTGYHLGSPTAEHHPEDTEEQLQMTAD

INADL-1 = test: Holdup assay, INADL-1; assay type: binding, human
GRID2IP-1 = test: Holdup assay, GRID2IP-1; assay type: binding, human

CC[C@H](C)[C@H](NC(=O)[C@H](CCC(N)=O)NC(=O)[C@@H](NC(=O)[C@H](Cc1c[nH]cn1)NC(=O)[C@H](CCC(N)=O)NC(=O)[C@H](CC(=O)O)NC(=O)[C@H](CCC(=O)O)NC(=O)[C@H](CC(=O)O)NC(=O)CCC(=O)NCCCOCCOCCOCCCNC(=O)CCCC[C@@H]1SC[C@@H]2NC(=O)N[C@@H]21)[C@@H](C)O)C(=O)N[C@H](C(=O)N[C@@H](CCCCNC(C)=O)C(=O)N[C@H](C(=O)O)C(C)C)[C@@H](C)O [PTEN_Ac]
BI (DLG1-1): 0.168
Kd (GORASP2-1): 36.7 µM
BI (GORASP2-1; GORASP2-1): 0.418
BI (HTRA4-1): -0.059
LogKD (HTRA4-1): 3.605
BI (FRMPD3-1): -0.12
LogKD (FRMPD3-1): 3.605
BI (MAGI2-6): 0.469
Kd (MAGI2-6): 29.6 µM
BI (PTPN13 PDZ 2): 0.044
BI (GRIP2-7): -0.07
LogKD (GRIP2-7): 3.605
BI (DFNB31-1): 0.09
LogKD (DFNB31-1): 3.605
BI (INADL-5): -0.076
LogKD (INADL-5): 3.605
BI (CASK-1): -0.102
LogKD (CASK-1): 3.605
BI (CARD11-1): -0.116
LogKD (CARD11-1): 3.605
BI (MAGI1-1): 0.034
LogKD (MAGI1-1): 3.605
BI (FRMPD2-3): -0.064
LogKD (FRMPD2-3): 3.605
BI (SDCBP PDZ 1): -0.057
BI (NHERF2 PDZ 1): 0.078
BI (MAGI2-1): 0.014
LogKD (MAGI2-1): 3.605
BI (MAGI1 PDZ 2): 0.101
Kd (MAST2 PDZ 1): 4.07 µM
BI (MAST2 PDZ 1; MAST2-1): 0.858
Kd (MAST1 PDZ 1): 26.3 µM
BI (MAST1 PDZ 1; MAST1-1): 0.497
BI (DLG4 PDZ 1): 0.15
BI (INADL-7): 0.306
Kd (INADL-7): 60.7 µM
BI (INADL-1): 0.004
LogKD (INADL-1): 3.605
BI (GRID2IP-1): -0.067
LogKD (GRID2IP-1): 3.605
